Reference: patent US12459957B2, “Therapeutic compounds and methods” (GENENTECH, INC., priority 2021, dated 2025)

System: neutrophils (PMA-stimulated NETosis)
Experiment: Quantification of NETosis using SYTOX Green
Format: cell-based, human
Conditions: for 5 uM (% NETosis): compound at 5 uM, NET-forming cells as percentage of total cells, vehicle 79.66, untreated 14.54; for IC50: Homo sapiens, Neutrophil, NETosis, SYTOX Green-stained neutrophils, PMA-stimulated
Description: Semi-automated analysis of both phase and fluorescence images of SYTOX Green-stained neutrophils used a MATLAB algorithm. Total cells were counted by scoring phase standard deviation and radial symmetry. NETosis was classified in cells by measuring the DNA area in the fluorescence image and comparing with a select internal training set for each experiment. Unstimulated cells and PMA-stimulated, pyocyanin-inhibited cells served as negative controls. PMA-stimulated cells served as a positive control. NET-forming cells are presented as a percentage of total cells.

SMILES | 5 uM (% NETosis) | IC50
c1ccc(-c2cc3n(n2)Cc2ccc(NC4COC4)cc2OC3)cc1 [Example 30] | 84.70% | 
CC(=O)Nc1ccc2c(c1)OCc1cc(-c3ccc(F)cc3O)nn1C2 [Example 51] | 57.20% | 
CC(=O)Nc1ccc2c(c1)OCc1cc(-c3ccc4[nH]c(=O)oc4c3)nn1C2 [Example 87] | 78.92% | 
CC(=O)Nc1ccc2c(c1)OCc1cc(-c3cccc(C(=O)N(C)C)c3)nn1C2 [Example 100] | 85.05% | 
CNC(=O)c1cccc(-c2cc3n(n2)Cc2ccc(NC(C)=O)cc2OC3)c1 [Example 101] | 85.18% | 
c1ccc(-c2cc3n(n2)Cc2ccc(-c4cnc5ncccn45)cc2OC3)cc1 [Example 15] | 77.26% | 
c1ccc(-c2cc3n(n2)Cc2ccc(NC4CCCC4)cc2OC3)cc1 [Example 21, N-cyclopentyl-2-phenyl-4H,10H-benzo[f]pyrazolo[5,1-c][1,4]oxazepin-7-amine] | 86.47% | 
Cn1cc(Nc2ccc3c(c2)OCc2cc(-c4ccccc4)nn2C3)c(C#N)n1 [Example 34] | 80.80% | 
Clc1[nH]ncc1Nc1ccc2c(c1)OCc1cc(-c3ccccc3)nn1C2 [Example 28, N-(5-chloro-1H-pyrazol-4-yl)-2-phenyl-4H,10H-benzo[f]pyrazolo[5,1-c][1,4]oxazepin-7-amine] | 44.49% | 
COc1ccc(-c2cc3n(n2)Cc2ccc(NC(C)=O)cc2OC3)c(C)c1 [Example 83] | 51.91% | 
CC(=O)Nc1ccc2c(c1)OCc1cc(-c3ccc(S(=O)(=O)N4CCN(C)CC4)cc3)nn1C2 [Example 96] | 82.37% | 
CC(=O)Nc1ccc2c(c1)OCc1cc(-c3ccnc(NC(C)=O)c3)nn1C2 [Example 102] | 85.50% | 
CC(=O)Nc1ccc2c(c1)OCc1cc(-c3ccc(F)cc3C#N)nn1C2 [Example 45] | 56.95% | 
c1ccc(-c2cc3n(n2)Cc2ccc(-c4cncs4)cc2OC3)cc1 [Example 16] | 80.91% | 
CNS(=O)(=O)c1ccccc1-c1cc2n(n1)Cc1ccc(NC(C)=O)cc1OC2 [Example 97] | 81.93% | 
COc1cccc(-c2cc3n(n2)Cc2ccc(NC(C)=O)cc2OC3)c1 [Example 2, N-(2-(3-Methoxyphenyl)-4H,10H-benzo[f]pyrazolo[5,1-c][1,4]oxazepin-7-yl)acetamide] |  | 900 ± 200 nM
FC1(F)CC1CNc1ccc2c(c1)OCc1cc(-c3ccccc3)nn1C2 (stereo not drawn) [Example 40] | 71.44% | 
COc1cnccc1-c1cc2n(n1)Cc1ccc(NC(C)=O)cc1OC2 [Example 61] | 78.57% | 
COc1cncc(-c2cc3n(n2)Cc2ccc(NC(C)=O)cc2OC3)c1 [Example 71] | 69.95% | 
CC(=O)Nc1ccc2c(c1)OCc1cc(-c3cccc(N(C)C(C)=O)c3)nn1C2 [Example 103] | 75.39% | 
CSc1ccccc1-c1cc2n(n1)Cc1ccc(NC(C)=O)cc1OC2 [Example 43] | 49.48% | 
CC(=O)Nc1ccc2c(c1)OCc1cc(-c3cnn(CC(F)(F)F)c3)nn1C2 [Example 93] | 73.17% | 
Cn1cc(Nc2ccc3c(c2)OCc2cc(-c4ccccc4)nn2C3)cn1 [Example 25] | 78.63% | 
c1ccc(-c2cc3n(n2)Cc2ccc(-c4cnc5n4CCCC5)cc2OC3)cc1 [Example 13] | 80.46% | 

SMILES | 5 uM (% NETosis) | IC50
C#Cc1ccccc1-c1cc2n(n1)Cc1ccc(NC(C)=O)cc1OC2 [Example 44] | 83.27% | 
CC(=O)Nc1ccc2c(c1)OCc1cc(-c3ccnn3C3CC3)nn1C2 [Example 60] | 63.78% | 
CNC(=O)c1ccc(F)c(-c2cc3n(n2)Cc2ccc(NC(C)=O)cc2OC3)c1 [Example 99] | 84.59% | 
CC(=O)Nc1ccc2c(c1)OCc1cc(-c3ccccc3C3CC3)nn1C2 [Example 76] | 63.32% | 
CC(=O)Nc1ccc2c(c1)OCc1cc(-c3cccc4c3CN(C)C4=O)nn1C2 [Example 90] | 78.83% | 
C#CCNc1ccc2c(c1)OCc1cc(-c3ccccc3)nn1C2 [Example 41] | 73.65% | 
c1ccc(-c2cc3n(n2)Cc2ccc(-c4cnn5cccnc45)cc2OC3)cc1 [Example 14] | 83.04% | 
CC(=O)Nc1ccc2c(c1)OCc1cc(-c3ccccc3C)nn1C2 [Example 50] | 72.49% | 
CC(=O)Nc1ccc2c(c1)OCc1cc(-c3cn[nH]c3C)nn1C2 [Example 66] | 84.91% | 
CC(=O)Nc1ccc2c(c1)OCc1cc(-c3c(C)n[nH]c3C)nn1C2 [Example 75] | 85.26% | 
CC(=O)Nc1ccc2c(c1)OCc1cc(-c3cccc(C#CCCCO)c3)nn1C2 [Example 5, N-(2-(3-(5-hydroxypent-1-yn-1-yl)phenyl)-4H,10H-benzo[f]pyrazolo[5,1-c][1,4]oxazepin-7-yl)acetamide] |  | 3000 ± 1000 nM
CC(=O)Nc1ccc2c(c1)OCc1cc(-c3ccccc3NS(C)(=O)=O)nn1C2 [Example 88] | 71.64% | 
OCCn1cc(Nc2ccc3c(c2)OCc2cc(-c4ccccc4)nn2C3)cn1 [Example 20] | 77.97% | 
CCc1n[nH]c(Nc2ccc3c(c2)OCc2cc(-c4ccccc4)nn2C3)c1Cl [Example 24] | 81.55% | 
Clc1cc(Nc2ccc3c(c2)OCc2cc(-c4ccccc4)nn2C3)[nH]n1 [Example 27] | 54.56% | 
FC(F)(F)CNc1ccc2c(c1)OCc1cc(-c3ccccc3)nn1C2 [Example 37] | 83.25% | 
CC(=O)Nc1ccc2c(c1)OCc1cc(-c3ccnc(C#N)c3)nn1C2 [Example 69] | 66.18% | 
Cc1cn[nH]c1Nc1ccc2c(c1)OCc1cc(-c3ccccc3)nn1C2 [Example 35] | 73.98% | 
CC(=O)Nc1ccc2c(c1)OCc1cc(-c3ccc4c(c3)NC(=O)C4)nn1C2 [Example 84] | 42.93% | 
c1ccc(-c2cc3n(n2)Cc2ccc(NC4CCC4)cc2OC3)cc1 [Example 23] | 86.22% | 
CC(=O)Nc1ccc2c(c1)OCc1cc(-c3cccc(S(C)(=O)=O)c3)nn1C2 [Example 80] | 46.95% | 
CC(=O)Nc1ccc2c(c1)OCc1cc(-c3c(O)cccc3F)nn1C2 [Example 49] | 42.24% | 
Oc1cc(Nc2ccc3c(c2)OCc2cc(-c4ccccc4)nn2C3)[nH]n1 [Example 22] | 79.55% | 
CC(=O)Nc1ccc2c(c1)OCc1cc(-c3cnn(CCN(C)C)c3)nn1C2 [Example 92] | 81.09% | 

SMILES | 5 uM (% NETosis) | IC50
COc1ccc(-c2cc3n(n2)Cc2ccc(NC(C)=O)cc2OC3)cc1 [Example 3, N-(2-(4-Methoxyphenyl)-4H,10H-benzo[f]pyrazolo[5,1-c][1,4]oxazepin-7-yl)acetamide] |  | 520 ± 60 nM
COc1cc(-c2cc3n(n2)Cc2ccc(NC(C)=O)cc2OC3)c(OC)nn1 [Example 85] | 74.51% | 
CC(=O)Nc1ccc2c(c1)OCc1cc(-c3ccc(N(C)C(C)=O)cc3)nn1C2 [Example 82] | 77.67% | 
CC(=O)Nc1ccc2c(c1)OCc1cc(-c3cc[nH]n3)nn1C2 [Example 57] | 87.44% | 
CC(=O)Nc1ccc2c(c1)OCc1cc(-c3c(F)cccc3F)nn1C2 [Example 48] | 42.40% | 
CC(C)(C)Nc1ccc2c(c1)OCc1cc(-c3ccccc3)nn1C2 [Example 38] | 81.48% | 
CC(=O)Nc1ccc2c(c1)OCc1cc(-c3cccc(CC#N)c3)nn1C2 [Example 47] | 62.82% | 
COc1cccc(C#N)c1-c1cc2n(n1)Cc1ccc(NC(C)=O)cc1OC2 [Example 94] | 90.90% | 
CC(=O)Nc1ccc2c(c1)OCc1cc(-c3cccc(F)c3)nn1C2 [Example 56] | 35.77% | 
CC(=O)Nc1ccc2c(c1)OCc1cc(-c3cccc4c3CN(C)C4)nn1C2 [Example 89] | 84.44% | 
N#CCn1cc(-c2ccc3c(c2)OCc2cc(-c4ccccc4)nn2C3)cn1 [Example 12, 2-(4-(2-phenyl-4H,10H-benzo[f]pyrazolo[5,1-c][1,4]oxazepin-7-yl)-1H-pyrazol-1-yl)acetonitrile] | 81.41% | 
CC(=O)Nc1ccc2c(c1)OCc1cc(-c3ccc(S(=O)(=O)N4CCOCC4)cc3)nn1C2 [Example 95] | 85.90% | 
CC(=O)NCc1cc(-c2cc3n(n2)Cc2ccc(NC(C)=O)cc2OC3)ccc1F [Example 98] | 48.65% | 
CNC(=O)c1ccc(-c2cc3n(n2)Cc2ccc(NC(C)=O)cc2OC3)cn1 [Example 73] | 82.63% | 
CC(=O)Nc1ccc2c(c1)OCc1cc(-c3ccccc3S(C)(=O)=O)nn1C2 [Example 81] | 84.34% | 
CC(=O)Nc1ccc2c(c1)OCc1cc(-c3cccc(C#N)n3)nn1C2 [Example 78] | 58.91% | 
c1ccc(-c2cc3n(n2)Cc2ccc(NC4CC4)cc2OC3)cc1 [Example 26] | 78.70% | 
CC(=O)Nc1ccc2c(c1)OCc1cc(-c3ccc(F)cc3CO)nn1C2 [Example 46, N-(2-(4-fluoro-2-(hydroxymethyl)phenyl)-4H,10H-benzo[f]pyrazolo[5,1-c][1,4]oxazepin-7-yl)acetamide] | 51.25% | 
CC(=O)Nc1ccc2c(c1)OCc1cc(-c3ccc(N4CCCC4)nc3)nn1C2 [Example 79] | 83.33% | 
COc1ccncc1-c1cc2n(n1)Cc1ccc(NC(C)=O)cc1OC2 [Example 70] | 78.10% | 
CC(=O)Nc1ccc2c(c1)OCc1cc(-c3cnccc3C#N)nn1C2 [Example 72] | 80.10% | 
CC(=O)Nc1ccc2c(c1)OCc1cc(-c3ccnc4[nH]ccc34)nn1C2 [Example 91] | 77.13% | 
CC(=O)Nc1ccc2c(c1)OCc1cc(-c3ccc(C(=O)N4CCOCC4)cc3)nn1C2 [Example 106] | 86.21% | 
CC(=O)Nc1ccc2c(c1)OCc1cc(-c3ccccc3NC(C)=O)nn1C2 [Example 105] | 70.78% | 
